# Results reported in US4439460A, “Dipeptide sweetener sulfate and sulfonate salts” (G. D. Searle & Co., priority 1982, dated 1984).
# Where a SMILES comes first, the peptide text is derived from it.
# Assays:
# [1] = Thermal stability examination: oven at 170° C., HPLC analysis; type: physicochemical; settings: for degradation: after seven, fifteen or twenty-five minutes heating at about 170° C.; for % Degradation, 7 Minutes (170° C.) / % Degradation, 15 Minutes (170° C.) / Physical Appearance after 25 Minutes at 170° C. / % Degradation, 25 Minutes (170° C.): oven 170° C.; for % Degradation, 7 Minutes (170° C.) / % Degradation, 15 Minutes (170° C.) / % Degradation, 25 Minutes (170° C.): HPLC
# Experimental: Samples of the salts of Examples 1 and 2 having weights equivalent to about 40 mg of APM and reference samples (40 mg) of free base aspartylphenylalanine methyl ester (APM) and the corresponding hydrochloride dihydrogen phosphate (H2 PO4) and bisulfate (HSO4) salts having weights equivalent to about 40 mg APM were placed in individual 10 ml beakers and put in an oven pre-heated to 170° C. The samples were allowed to bake for predetermined times (7, 15 and 25 minutes) after which they were removed from the oven and analyzed by HPLC using the foregoing HPLC methods.
# [2] = Shelf life determination: accelerated storage, HPLC assay; type: physicochemical
# Experimental: Two sets of samples of the APM sulfate salt of Example 1, APM hydrochloride and APM each having a weight equivalent to […] APM were placed in ovens which contained an open beaker of water. The first set of samples was heated at 70° and 100 percent humidity for 14.7 days. The second set of samples was heated at 85° and atmospheric humidity for 14.7 days. The samples were periodically analyzed by the HPLC method as described above in order to determine percent decomposition.
# [3] = Taste of baked dipeptide sweetened yellow cakes; settings: single blind conditions
# Experimental: A taste test of the baked dipeptide sweetened yellow cakes can also be conducted under standard single blind conditions.
# (§1) Yellow cakes were baked following a standard recipe, but substituting a dipeptide sweetener or its salt and Maltrin M-100 (a modified maltodextrin starch bulking agent) for sugar. The liquid ingredients were creamed together then folded into a sifted mixture of the dry ingredients. The resulting dough was placed in a greased 8-inch cake pan and baked at 350° for 40 minutes. Three cakes were baked in this manner; cake 1 contained (APM-H)2 SO4, cake 2 contained APM-HCl, cake 3 contained APM.
# [4] = Rate of dissolution studies in beverage media; type: physicochemical; settings: for Media Dissolution Times, medium 4: ambient temperature coffee (80 ml); for Media Dissolution Times, medium 4 / Media Dissolution Times, medium 3 / Media Dissolution Times, medium 2: with stirring; for Media Dissolution Times, medium 4 / Media Dissolution Times, medium 1 / Media Dissolution Times, medium 3 / Media Dissolution Times, medium 2: salt equimolar with 57 mg APM; for Media Dissolution Times, medium 1: refrigerated carbonated water (240 ml), without stirring; for Media Dissolution Times, medium 3: refrigerated coffee (80 ml); for Media Dissolution Times, medium 2: refrigerated lemonade with no sugar (240 ml)
# Experimental: Samples of the salts of Examples 1, 2 and the APM hydrochloride and corresponding bisulfate and dihydrogen phosphate salts were employed to determine relative dissolution rates in beverage media. The amount of salt used in each instance was calculated to be equimolar with 57 mg of APM. The tests were conducted in four types of liquid beverage media; (1) refrigerated carbonated water (240 ml), (2) refrigerated lemonade without sugar (240 ml), (3) refrigerated coffee (80 ml), (4) coffee at ambient temperature (80 ml). The dissolution rates in medium 1 were measured without stirring and the rates in 2, 3 and 4 were measured with stirring. Dissolution was deemed complete when solid particles or a cloudy appearing medium were no longer present.
# [5] = Thermal stability studies in baked cake: HPLC of core samples; type: physicochemical; settings: for sweetener recovery: typical cake test, baked at 350° Fahrenheit for about thirty to forty-five minutes
# Experimental: In this test sweetened yellow cakes are prepared following well-known procedures and using the appropriate ingredients but substituting dipeptide sweetener for sugar. Use of examples of salts of the invention and reference dipeptides and salts such as the hydrochloride will produce eight-inch yellow cakes which are ready for sweetener content comparison. The cakes are typically baked at 350° Fahrenheit (about 175° C.) for about thirty to forty-five minutes. Taking core sections of the sample cakes and analyzing for dipeptide sweetener content allows determination of the percent degradation of the form of the dipeptide sweetener used. In a typical thermal stability cake test, a cake baked with the sulfate salt of the invention will have about […] more dipeptide sweetener in it than a cake baked with the hydrochloride salt; compare, for example, about 34 percent sweetener recovery for the sulfate with about 25 percent for the hydrochloride.
# as §1
# The liquid ingredients included milk (193 g), shortening (54 g), egg (53 g, 1 egg), vanilla (3.6 g); the dry ingredients included flour (167 g), baking powder (6.9 g), salt (3.4 g), maltrin M-100 (126.5 g) dipeptide sweetener salt: (APM-H)2 SO4 (cake 1) (1.2 g), APM-HCl (cake 2) (1.2 g), APM (cake 3) (1.0 g).
# Core samples were taken from each of the three cakes and the samples were analyzed by HPLC methods as described in Example 1.
SMILES,degradation [1],"% Degradation, 7 Minutes (170° C.) [1] [%]","% Degradation, 15 Minutes (170° C.) [1] [%]",Physical Appearance after 25 Minutes at 170° C. [1],"% Degradation, 25 Minutes (170° C.) [1] [%]","HPLC Assay (% composition) APM, 6.8 days ([2]; 70°, 100 percent humidity) [%]","HPLC Assay (% composition) DKP, 6.8 days ([2]; 70°, 100 percent humidity)","APM % Initial (APM remaining after 14.7 days relative to the initial APM) ([2]; 70°, 100 percent humidity) [%]","HPLC Assay (% composition) AP, 14.7 days ([2]; 70°, 100 percent humidity)","HPLC Assay (% composition) APM, 14.7 days ([2]; 70°, 100 percent humidity) [%]","HPLC Assay (% composition) APM, 6.8 days ([2]; 85° C., atmospheric humidity) [%]","HPLC Assay (% composition) DKP, 6.8 days ([2]; 85° C., atmospheric humidity) [%]","APM % Initial (APM remaining after 14.7 days relative to the initial APM) ([2]; 85° C., atmospheric humidity) [%]","HPLC Assay (% composition) AP, 14.7 days ([2]; 85° C., atmospheric humidity)","HPLC Assay (% composition) APM, 14.7 days ([2]; 85° C., atmospheric humidity) [%]","HPLC Assay (% composition) DKP, 14.7 days ([2]; 85° C., atmospheric humidity)","HPLC Assay (% composition) APM, Initial ([2]; initial, before storage) [%]","Media Dissolution Times, medium 4 [4] [s]","Media Dissolution Times, medium 1 [4] [s]","Media Dissolution Times, medium 2 [4]",also measured
"COC(=O)[C@H](Cc1ccccc1)NC(=O)[C@@H](N)CC(=O)O [A, aspartylphenylalanine methyl ester] (H-Asp-Phe-OMe)",≤ 85%,0,22.2,light-gray material,87.6,95.3,1.1%,95.9,0.21%,92.6,95.2,1.6,94.9,.20%,91.7,2.0%,96.6,,,,"HPLC Assay (% composition) DKP, 14.7 days ([2]; 70°, 100 percent humidity): 1.2%; HPLC Assay (% composition) DKP, Initial ([2]; initial, before storage): 1.0%; cake sweetness, panel taste testing [3]: little sweetness and a flat taste"
"COC(=O)[C@H](Cc1ccccc1)NC(=O)[C@@H](N)CC(=O)O.Cl [B, aspartylphenylalanine methyl ester hydrochloride] (H-Asp-Phe-OMe)",at least 45%,2,8.5,"melted, light-brown",44.7,77.7,.25%,93.6,.36%,75.1,62.1,4.0,57.3,1.6%,46.0,3.2%,80.2,90,120,52 s,"Media Dissolution Times, medium 3 [4]: 94 s; dissolution of a sweetening amount in refrigerated lemonade [4]: require significant time and stirring to dissolve; HPLC Assay (% composition) AP, 6.8 days ([2]; 70°, 100 percent humidity): .33%; HPLC Assay (% composition) DKP, 14.7 days ([2]; 70°, 100 percent humidity): .60%; HPLC Assay (% composition) AP, 6.8 days ([2]; 85° C., atmospheric humidity): 1.1%; sweetener recovery [5]: about 25%"
"COC(=O)[C@H](Cc1ccccc1)NC(=O)[C@@H](N)CC(=O)O.O=S(=O)(O)O [C, aspartylphenylalanine methyl ester bisulfate] (H-Asp-Phe-OMe)",≤ 85%,62.8,78.2,melted colorless,89.2,,,,,,,,,,,,,330,,,
COC(=O)[C@H](Cc1ccccc1)NC(=O)[C@@H](N)CC(=O)O.O=P(O)(O)O [D] (H-Asp-Phe-OMe),,0.1,60.6,yellow powder,86.6,,,,,,,,,,,,,600,,,
"COC(=O)[C@H](Cc1ccccc1)NC(=O)[C@@H](N)CC(=O)O.COC(=O)[C@H](Cc1ccccc1)NC(=O)[C@@H](N)CC(=O)O.O=S(=O)(O)O [Ex. 1, Bis(hydrogen aspartylphenylalanine methyl ester) sulfate] (H-Asp-Phe-OMe)",less than 10%,1.3,0,white cryst. powder,5.5,83.9,,96.7,.20%,82.1,83.0,0.15,95.4,.20%,80.9,.08%,84.8,22,22,About 0 seconds,"dissolution rate relative to the corresponding hydrochloride salt [4]: at least approximately five to six times faster; Media Dissolution Times, medium 3 [4]: 24 s; dissolution of a sweetening amount in refrigerated lemonade [4]: completely dissolve in refrigerated lemonade without stirring; degradation in shelf life stability tests ([2]; about 85° for about 15 days or 70° for about 15 days at 100 percent humidity): less degradation than the hydrochloride salt; sweetener recovery [5]: about 34%; more dipeptide sweetener in cake than a cake baked with the hydrochloride salt ([5]; typical thermal stability cake test): about 50%; cake sweetness, panel taste testing [3]: approximately equal to that of sugar"
COC(=O)[C@H](Cc1ccccc1)NC(=O)[C@@H](N)CC(=O)O.CS(=O)(=O)O [Ex. 2] (H-Asp-Phe-OMe),about 30%,0.0,0.5,off white powder,28.0,,,,,,,,,,,,,167,168,250 s,
